Assay results taken from ChEMBL document CHEMBL4507296 (2021).

How the values were obtained:
[1] = test system: Tyrosine-protein kinase ABL1 (Homo sapiens), P00519 [H396P]; conditions: Compound concentration 1000.0 nM
[2] = target: Tyrosine-protein kinase ABL1 (Homo sapiens) (UniProt P00519); conditions: Compound concentration 1000.0 nM
[3] = test system: Fibroblast growth factor receptor 3 (Homo sapiens), P22607 [G697C]; conditions: Compound concentration 1000.0 nM
[4] = test system: Tyrosine-protein kinase ABL1 (Homo sapiens), P00519 [T315I]; conditions: Compound concentration 1000.0 nM
[5] = target: Mitogen-activated protein kinase 8 (Homo sapiens) (UniProt P45983); conditions: Compound concentration 1000.0 nM
[6] = target: Serine/threonine-protein kinase Sgk2 (Homo sapiens) (UniProt Q9HBY8); conditions: Compound concentration 1000.0 nM
[7] = target: Serine/threonine-protein kinase haspin (Homo sapiens) (UniProt Q8TF76); conditions: Compound concentration 1000.0 nM
Serine/threonine-protein kinase haspin (Homo sapiens), sequence (Q8TF76 whole entry): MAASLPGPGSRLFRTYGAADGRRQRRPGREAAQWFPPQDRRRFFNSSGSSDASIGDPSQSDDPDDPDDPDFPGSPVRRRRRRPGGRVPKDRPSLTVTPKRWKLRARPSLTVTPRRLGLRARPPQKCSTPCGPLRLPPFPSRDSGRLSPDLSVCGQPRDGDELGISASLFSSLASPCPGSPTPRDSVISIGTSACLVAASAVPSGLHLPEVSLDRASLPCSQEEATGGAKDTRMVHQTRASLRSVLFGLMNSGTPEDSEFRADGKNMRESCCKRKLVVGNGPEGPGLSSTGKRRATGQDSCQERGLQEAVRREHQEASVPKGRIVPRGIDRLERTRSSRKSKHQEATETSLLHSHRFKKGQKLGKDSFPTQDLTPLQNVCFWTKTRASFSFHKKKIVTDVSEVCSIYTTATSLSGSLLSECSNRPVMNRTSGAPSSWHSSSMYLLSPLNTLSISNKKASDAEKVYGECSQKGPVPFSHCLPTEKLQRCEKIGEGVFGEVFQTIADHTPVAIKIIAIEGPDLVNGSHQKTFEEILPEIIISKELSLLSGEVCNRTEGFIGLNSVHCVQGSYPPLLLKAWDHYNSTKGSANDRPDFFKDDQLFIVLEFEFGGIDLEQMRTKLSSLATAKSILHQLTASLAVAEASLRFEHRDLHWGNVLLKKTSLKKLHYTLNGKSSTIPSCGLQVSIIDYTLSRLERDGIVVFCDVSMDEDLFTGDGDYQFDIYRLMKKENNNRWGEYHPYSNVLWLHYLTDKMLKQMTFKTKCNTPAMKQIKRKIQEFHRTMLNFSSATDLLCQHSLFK

[8] = target: cGMP-dependent protein kinase 1 (Homo sapiens) (UniProt Q13976); conditions: Compound concentration 1000.0 nM
[9] = target: cAMP-dependent protein kinase catalytic subunit alpha (Homo sapiens) (UniProt P17612); conditions: Compound concentration 1000.0 nM
[10] = target: Testis-specific serine/threonine-protein kinase 3 (Homo sapiens) (UniProt Q96PN8); conditions: Compound concentration 1000.0 nM
[11] = target: Cytoplasmic tyrosine-protein kinase BMX (Homo sapiens) (UniProt P51813); conditions: Compound concentration 1000.0 nM
[12] = target: Calcium/calmodulin-dependent protein kinase type II subunit delta (Homo sapiens) (UniProt Q13557); conditions: Compound concentration 1000.0 nM
[13] = target: LIM domain kinase 1 (Homo sapiens) (UniProt P53667); conditions: Compound concentration 1000.0 nM
[14] = target: Mitogen-activated protein kinase kinase kinase kinase 1 (Homo sapiens) (UniProt Q92918); conditions: Compound concentration 1000.0 nM
[15] = target: SRSF protein kinase 2 (Homo sapiens) (UniProt P78362); conditions: Compound concentration 1000.0 nM
[16] = target: Serine/threonine-protein kinase RIO3 (Homo sapiens) (UniProt O14730); conditions: Compound concentration 1000.0 nM
[17] = target: Ribosomal protein S6 kinase beta-1 (Homo sapiens) (UniProt P23443); conditions: Compound concentration 1000.0 nM
[18] = target: Serine/threonine-protein kinase WNK3 (Homo sapiens) (UniProt Q9BYP7); conditions: Compound concentration 1000.0 nM
[19] = target: MAP/microtubule affinity-regulating kinase 3 (Homo sapiens) (UniProt P27448); conditions: Compound concentration 1000.0 nM
[20] = target: Tyrosine-protein kinase ABL1 (Homo sapiens) (UniProt P00519); conditions: Compound concentration 1000.0 nM; remark: listed apart in the source
[21] = target: Serine/threonine-protein kinase ICK (Homo sapiens) (UniProt Q9UPZ9); conditions: Compound concentration 1000.0 nM
[22] = target: cGMP-dependent protein kinase 2 (Homo sapiens) (UniProt Q13237); conditions: Compound concentration 1000.0 nM
[23] = target: Serine/threonine-protein kinase D3 (Homo sapiens) (UniProt O94806); conditions: Compound concentration 1000.0 nM
Serine/threonine-protein kinase D3 (Homo sapiens), sequence (O94806 whole entry): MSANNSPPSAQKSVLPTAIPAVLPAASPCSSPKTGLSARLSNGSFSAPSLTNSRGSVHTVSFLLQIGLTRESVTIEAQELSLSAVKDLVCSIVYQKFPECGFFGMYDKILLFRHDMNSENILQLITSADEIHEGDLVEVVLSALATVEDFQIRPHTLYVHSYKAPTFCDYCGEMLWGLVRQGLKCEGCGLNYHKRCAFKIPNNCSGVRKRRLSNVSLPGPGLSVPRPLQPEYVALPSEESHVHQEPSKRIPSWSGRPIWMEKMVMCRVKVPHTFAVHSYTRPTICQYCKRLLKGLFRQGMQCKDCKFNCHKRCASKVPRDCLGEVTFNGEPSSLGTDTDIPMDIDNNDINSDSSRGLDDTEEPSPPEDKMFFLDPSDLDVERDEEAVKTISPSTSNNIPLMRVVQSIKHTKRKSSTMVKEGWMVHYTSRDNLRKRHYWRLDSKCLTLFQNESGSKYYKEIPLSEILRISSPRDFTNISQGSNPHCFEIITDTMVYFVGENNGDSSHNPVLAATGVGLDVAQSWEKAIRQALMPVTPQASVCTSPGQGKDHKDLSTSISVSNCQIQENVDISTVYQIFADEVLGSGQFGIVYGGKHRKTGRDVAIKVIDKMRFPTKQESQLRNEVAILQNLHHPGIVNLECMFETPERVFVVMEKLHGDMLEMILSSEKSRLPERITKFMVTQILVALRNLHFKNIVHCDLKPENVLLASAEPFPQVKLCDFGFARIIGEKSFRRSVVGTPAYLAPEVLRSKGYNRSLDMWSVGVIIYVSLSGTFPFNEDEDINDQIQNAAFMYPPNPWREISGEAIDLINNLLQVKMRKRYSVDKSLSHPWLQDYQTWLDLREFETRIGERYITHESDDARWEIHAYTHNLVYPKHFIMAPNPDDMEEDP

[24] = target: Mast/stem cell growth factor receptor Kit (Homo sapiens) (UniProt P10721); conditions: Compound concentration 1000.0 nM
[25] = target: 3-phosphoinositide-dependent protein kinase 1 (Homo sapiens) (UniProt O15530); conditions: Compound concentration 1000.0 nM
[26] = target: D(4) dopamine receptor (Homo sapiens) (UniProt P21917); conditions: Compound concentration 10.0 uM
D(4) dopamine receptor (Homo sapiens), sequence (P21917 whole entry): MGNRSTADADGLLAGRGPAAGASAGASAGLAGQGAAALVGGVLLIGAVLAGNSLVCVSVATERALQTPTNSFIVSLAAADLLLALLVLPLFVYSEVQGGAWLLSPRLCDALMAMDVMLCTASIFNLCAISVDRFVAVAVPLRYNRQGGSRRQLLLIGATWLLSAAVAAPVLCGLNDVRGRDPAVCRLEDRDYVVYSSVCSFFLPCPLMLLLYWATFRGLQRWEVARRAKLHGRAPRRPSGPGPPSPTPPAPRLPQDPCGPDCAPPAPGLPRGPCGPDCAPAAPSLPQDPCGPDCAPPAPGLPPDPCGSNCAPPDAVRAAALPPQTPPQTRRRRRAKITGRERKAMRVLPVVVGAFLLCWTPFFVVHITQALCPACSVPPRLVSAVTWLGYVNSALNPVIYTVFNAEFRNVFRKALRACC

[27] = target: Ephrin type-B receptor 3 (Homo sapiens) (UniProt P54753); conditions: Compound concentration 1000.0 nM
[28] = target: Mitogen-activated protein kinase 1 (Homo sapiens) (UniProt P28482); conditions: Compound concentration 1000.0 nM
Mitogen-activated protein kinase 1 (Homo sapiens), sequence (P28482 whole entry): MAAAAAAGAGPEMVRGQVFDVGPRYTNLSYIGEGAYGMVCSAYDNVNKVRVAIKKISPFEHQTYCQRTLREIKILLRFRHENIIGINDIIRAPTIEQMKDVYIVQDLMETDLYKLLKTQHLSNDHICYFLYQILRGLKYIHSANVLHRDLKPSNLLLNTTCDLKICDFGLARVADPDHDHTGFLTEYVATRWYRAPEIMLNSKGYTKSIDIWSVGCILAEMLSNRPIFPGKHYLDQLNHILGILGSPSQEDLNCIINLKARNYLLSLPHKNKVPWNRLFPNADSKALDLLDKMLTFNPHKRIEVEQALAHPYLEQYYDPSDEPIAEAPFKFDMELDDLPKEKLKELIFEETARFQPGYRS

[29] = target: G protein-coupled receptor kinase 4 (Homo sapiens) (UniProt P32298); conditions: Compound concentration 1000.0 nM
[30] = target: D(3) dopamine receptor (Homo sapiens) (UniProt P35462); conditions: Compound concentration 10.0 uM
D(3) dopamine receptor (Homo sapiens), sequence (P35462 whole entry): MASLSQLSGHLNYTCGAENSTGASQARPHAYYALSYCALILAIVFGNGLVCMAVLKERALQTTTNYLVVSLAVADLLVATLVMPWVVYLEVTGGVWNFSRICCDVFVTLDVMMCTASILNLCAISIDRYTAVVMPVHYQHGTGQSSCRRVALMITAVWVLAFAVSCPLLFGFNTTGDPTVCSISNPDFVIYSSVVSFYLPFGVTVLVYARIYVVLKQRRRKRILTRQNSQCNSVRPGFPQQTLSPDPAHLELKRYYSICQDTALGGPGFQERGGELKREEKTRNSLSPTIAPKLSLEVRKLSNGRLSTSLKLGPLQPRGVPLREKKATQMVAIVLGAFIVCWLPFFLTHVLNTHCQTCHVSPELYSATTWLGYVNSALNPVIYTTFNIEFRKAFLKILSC

[31] = target: Mitogen-activated protein kinase 10 (Homo sapiens) (UniProt P53779); conditions: Compound concentration 1000.0 nM
Mitogen-activated protein kinase 10 (Homo sapiens), sequence (P53779 whole entry): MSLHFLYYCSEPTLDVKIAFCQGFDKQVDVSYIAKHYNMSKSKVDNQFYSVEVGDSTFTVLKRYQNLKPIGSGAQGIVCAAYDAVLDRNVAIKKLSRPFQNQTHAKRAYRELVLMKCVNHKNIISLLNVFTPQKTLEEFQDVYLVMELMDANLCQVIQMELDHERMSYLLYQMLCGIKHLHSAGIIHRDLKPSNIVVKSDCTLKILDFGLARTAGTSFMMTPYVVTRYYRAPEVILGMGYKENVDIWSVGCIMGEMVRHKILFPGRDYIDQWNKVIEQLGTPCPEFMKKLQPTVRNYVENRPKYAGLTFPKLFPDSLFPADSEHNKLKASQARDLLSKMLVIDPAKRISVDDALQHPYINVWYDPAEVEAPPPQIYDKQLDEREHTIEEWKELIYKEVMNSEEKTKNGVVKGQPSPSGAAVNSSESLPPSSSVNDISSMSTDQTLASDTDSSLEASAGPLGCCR

[32] = target: 5-hydroxytryptamine receptor 6 (Homo sapiens) (UniProt P50406); conditions: Compound concentration 10.0 uM
5-hydroxytryptamine receptor 6 (Homo sapiens), sequence (P50406 whole entry): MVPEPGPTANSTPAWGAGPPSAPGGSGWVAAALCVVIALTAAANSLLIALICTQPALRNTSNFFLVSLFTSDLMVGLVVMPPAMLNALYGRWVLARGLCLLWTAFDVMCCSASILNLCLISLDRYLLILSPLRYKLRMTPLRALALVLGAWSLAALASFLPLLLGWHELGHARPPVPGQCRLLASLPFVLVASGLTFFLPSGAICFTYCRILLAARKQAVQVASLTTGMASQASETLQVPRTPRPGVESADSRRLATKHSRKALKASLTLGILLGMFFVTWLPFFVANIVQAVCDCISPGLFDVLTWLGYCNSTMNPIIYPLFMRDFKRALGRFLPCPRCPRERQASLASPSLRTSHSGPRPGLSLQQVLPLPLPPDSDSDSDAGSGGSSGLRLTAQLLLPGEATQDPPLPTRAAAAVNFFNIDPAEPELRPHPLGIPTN

[33] = target: Ribosomal protein S6 kinase alpha-4 (Homo sapiens) (UniProt O75676); conditions: Compound concentration 1000.0 nM
[34] = target: Activated CDC42 kinase 1 (Homo sapiens) (UniProt Q07912); conditions: Compound concentration 1000.0 nM
[35] = test system: Receptor-type tyrosine-protein kinase FLT3 (Homo sapiens), P36888 [D835H]; conditions: Compound concentration 1000.0 nM
[36] = target: Serine/threonine-protein kinase Nek10 (Homo sapiens) (UniProt Q6ZWH5); conditions: Compound concentration 1000.0 nM
[37] = target: Insulin receptor-related protein (Homo sapiens) (UniProt P14616); conditions: Compound concentration 1000.0 nM
[38] = target: Mitogen-activated protein kinase kinase kinase kinase 3 (Homo sapiens) (UniProt Q8IVH8); conditions: Compound concentration 1000.0 nM
[39] = target: Serine/threonine-protein kinase 32C (Homo sapiens) (UniProt Q86UX6); conditions: Compound concentration 1000.0 nM
[40] = target: Platelet-derived growth factor receptor alpha (Homo sapiens) (UniProt P16234); conditions: Compound concentration 1000.0 nM
[41] = target: Gastrin/cholecystokinin type B receptor (Homo sapiens) (UniProt P32239); experiment: CCK2 (human) CEREP ligand profiling; conditions: Compound concentration 10.0 uM
[42] = target: Serine/threonine-protein kinase ULK2 (Homo sapiens) (UniProt Q8IYT8); conditions: Compound concentration 1000.0 nM
[43] = target: Serine/threonine-protein kinase 35 (Homo sapiens) (UniProt Q8TDR2); conditions: Compound concentration 1000.0 nM
[44] = target: Cyclin-dependent kinase 13 (Homo sapiens) (UniProt Q14004); conditions: Compound concentration 1000.0 nM
[45] = target: Protein kinase C delta type (Homo sapiens) (UniProt Q05655); conditions: Compound concentration 1000.0 nM
Protein kinase C delta type (Homo sapiens), sequence (Q05655 whole entry, looked up): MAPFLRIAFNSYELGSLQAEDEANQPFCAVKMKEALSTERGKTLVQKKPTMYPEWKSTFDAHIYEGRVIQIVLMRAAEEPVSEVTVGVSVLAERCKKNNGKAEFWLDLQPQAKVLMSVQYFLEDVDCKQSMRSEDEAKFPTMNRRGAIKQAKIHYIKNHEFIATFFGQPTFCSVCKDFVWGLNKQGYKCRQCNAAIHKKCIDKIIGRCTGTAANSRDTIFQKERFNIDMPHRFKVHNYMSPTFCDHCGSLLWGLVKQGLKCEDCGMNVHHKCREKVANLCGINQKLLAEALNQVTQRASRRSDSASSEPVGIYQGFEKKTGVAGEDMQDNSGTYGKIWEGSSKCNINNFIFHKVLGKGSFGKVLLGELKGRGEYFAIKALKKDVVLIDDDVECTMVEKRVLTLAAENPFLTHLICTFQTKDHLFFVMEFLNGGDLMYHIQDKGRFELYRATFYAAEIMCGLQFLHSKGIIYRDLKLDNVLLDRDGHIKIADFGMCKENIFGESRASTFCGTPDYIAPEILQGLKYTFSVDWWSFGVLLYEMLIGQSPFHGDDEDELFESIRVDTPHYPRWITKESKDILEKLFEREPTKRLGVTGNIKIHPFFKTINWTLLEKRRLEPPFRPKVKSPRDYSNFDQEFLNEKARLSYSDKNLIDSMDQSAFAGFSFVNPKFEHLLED

[46] = target: Serine/threonine-protein kinase PAK 2 (Homo sapiens) (UniProt Q13177); conditions: Compound concentration 1000.0 nM
Serine/threonine-protein kinase PAK 2 (Homo sapiens), sequence (Q13177 whole entry): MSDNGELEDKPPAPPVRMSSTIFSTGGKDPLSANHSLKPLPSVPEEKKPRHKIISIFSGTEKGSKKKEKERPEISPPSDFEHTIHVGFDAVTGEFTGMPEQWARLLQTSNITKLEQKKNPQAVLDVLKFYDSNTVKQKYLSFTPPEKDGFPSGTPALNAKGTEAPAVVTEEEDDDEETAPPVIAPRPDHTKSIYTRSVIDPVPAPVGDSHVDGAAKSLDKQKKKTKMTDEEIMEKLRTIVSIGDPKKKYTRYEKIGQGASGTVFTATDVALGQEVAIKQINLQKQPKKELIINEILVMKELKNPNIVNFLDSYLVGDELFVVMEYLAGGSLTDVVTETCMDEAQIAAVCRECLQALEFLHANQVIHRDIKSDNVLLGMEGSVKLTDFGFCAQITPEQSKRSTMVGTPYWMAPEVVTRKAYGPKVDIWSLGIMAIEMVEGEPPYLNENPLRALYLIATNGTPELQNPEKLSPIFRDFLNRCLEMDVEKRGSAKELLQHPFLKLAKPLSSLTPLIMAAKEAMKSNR

C[C@H](c1ccc(F)cc1)N(Cc1cccc(C(=O)O)c1)C(=O)c1cnc2ccccc2c1 [PF-05105679]
inactive: residual activity [1] 73% | residual activity [2] 76% | residual activity [3] 100% | residual activity [4] 75% | residual activity [5] 100% | residual activity [6] 93% | residual activity [7] 100% | residual activity [8] 100% | residual activity [9] 100% | residual activity [10] 64% | residual activity [11] 99% | residual activity [12] 100% | residual activity [13] 100% | residual activity [14] 100% | residual activity [15] 98% | residual activity [16] 86% | residual activity [17] 100% | residual activity [18] 87% | residual activity [19] 100% | residual activity [20] 100% | residual activity [21] 100% | residual activity [22] 100% | residual activity [23] 100% | residual activity [24] 100% | residual activity [25] 100% | inhibition [26] 10.1% | residual activity [27] 100% | residual activity [28] 99% | residual activity [29] 100% | inhibition [30] -8.16% | residual activity [31] 82% | inhibition [32] 3.57% | residual activity [33] 100% | residual activity [34] 100% | residual activity [35] 84% | residual activity [36] 96% | residual activity [37] 84% | residual activity [38] 90% | residual activity [39] 100% | residual activity [40] 100% | inhibition [41] 35% | residual activity [42] 81% | residual activity [43] 93% | residual activity [44] 98% | residual activity [45] 100% | residual activity [46] 100%
